Test results from patent publication US20140309295A1, “ANTIEPILEPTIC, HYPOCHOLESTEROLEMIC AND NEUROPROTECTIVE COMPOUND” (NEURON BIOPHARMA, S.A., priority 2009, published 2014).

Tests used:
[1] = system: human neuroblastoma SK-N-MC cells; test: Protection against neuronal death induced by oxidative stress (xanthine/xanthine oxidase), WST-1; type: cell-based
Experimental: (§1) The assay was performed on human neuroblastoma SK-N-MC cells in culture from the American Type Culture Collection (ATCC), in all cases strict rules of sterility were followed and the manipulation was performed in class II biological safety cabinets following European standard EN 12469. The cells were maintained in the following culture medium: Minimum Essential Medium Eagle (MEM) supplemented with 1 mM sodium pyruvate, 2 mM L-glutamine, 0.1 mM non-essential amino acids, 0.05 mg/ml gentamicin and 10% fetal bovine serum.
The inhibition caused by compound NST0037 of cell death caused by treatment with xanthine/xanthine oxidase which generates oxidative damage (causes free radicals such as hydrogen peroxide, superoxide anion, hydroxyl radical), which triggers cell death, was analyzed. These cells, not exceeding 15 passages, were seeded on 96-well plates treated for adherent cells with a cell concentration of 5×10^4 cells/well; 3 wells of the plate were seeded for each condition of the assay.
After 24 hours of cell incubation at 37° C. and 5% CO2, the cell treatments were performed with 100 μl of total volume for the following conditions: • Control: culture medium (medium) • Xanthine/xanthine oxidase (XXO): medium plus 10 μM xanthine/60 mU/mL xanthine oxidase, causing the death of 50% of the cells. • XXO plus NST0037: medium plus XXO (10 μM/60 mU/mL) plus NST0037 at 1, 4, 10, 20, 40 or 100 μM.
The cells were incubated (at 37° C. and 5% CO2) with these treatments for 22 hours, after which time the WST-1 reagent (Roche) was added. The Test WST-1 is based on the measurement of metabolic activity. Cell damage causes the loss of the ability of cells to obtain the energy necessary to maintain their metabolic functions and cell growth, therefore the metabolically active (live) cells reduce tetrazolium salt to formazan by means of the succinate-tetrazolium reductase system (of the mitochondrial respiratory chain). The formazan which is formed can be detected colorimetrically since it has an absorbance of 440 nm. The reading was taken in a plate reader at 440 nm 2 hours after adding the reagent.
The assay was performed on human neuroblastoma SK-N-MC cells in culture from the American Type Culture Collection (ATCC), in all cases strict rules of sterility were followed and the manipulation was performed in class II biological safety cabinets following European standard EN 12469. […]
The effect of mevalonate on the protection caused by compound NST0037 against cell death caused by the treatment with xanthine/xanthine oxidase generating oxidative damage and cell death was analyzed. […]

[2] = system: caspase 3/7; test: Inhibition of camptothecin-induced activation of caspase 3/7 in SK-N-MC cells; type: cell-based, human; conditions: 100 μM mevalonate with NST0037 pretreatment
Experimental: The assay was performed on human neuroblastoma SK-N-MC cells in culture from the American Type Culture Collection (ATCC), in all cases strict rules of sterility were followed and the manipulation was performed in class II biological safety cabinets following European standard EN 12469. The cells were maintained in the following culture medium: Minimum Essential Medium Eagle (MEM) supplemented with 1 mM sodium pyruvate, 2 mM L-glutamine, 0.1 mM non-essential amino acids, 0.05 mg/ml gentamicin and 10% fetal bovine serum. The induction of apoptosis on the cells in culture was performed by means of incubation with camptothecin (CPT), which triggers cell apoptosis activation. The apoptosis was determined by means of the measurement of the activation of effector caspases, caspase 3 or caspase 7, for which a kit for the fluorometric detection of active caspase 3/7 (Apo-ONE® Homogeneous Caspase-3/7, Promega) was used. The active caspase 3 or 7 of the cells cause the rupture of a substrate, which leads to fluorescence emission, which is read by means of a fluorometer. The effect of the pretreatment of compound NST0037 at 10 and 40 μM on the activation of caspase 3/7 caused by 50 μM of camptothecin (CPT) in the SK-N-MC cells was thus analyzed. These cells, not exceeding 15 passages, were seeded on 96-well plates treated for adherent cells with a cell concentration of 5×10^4 cells/well, 3 wells of the plate were seeded for each condition of the assay. After 24 hours of cell incubation at 37° C. and 5% CO2, the pretreatment with NST0037 at 10 and 40 μM was performed. […] On the following day, fluorescence was measured (499/521 nm, […]).

[3] = system: human neuroblastoma SK-N-MC cells; test: Inhibition of camptothecin-induced apoptosis by flow cytometry (sub-G1); type: cell-based; conditions: pretreatment 40 μM NST0037 with 100 μM mevalonate
Experimental: as §1
The inhibition caused by compound NST0037 against apoptosis (programmed cell death) caused by treatment with camptothecin which inhibits the enzyme Topoisomerase I, which prevents DNA duplication and triggers apoptotic cell death, was analyzed. These cells, not exceeding 15 passages, were seeded on 6-well plates treated for adherent cells with a cell concentration of 8×10^5 cells/well and 7×10^5 cells/well for the assay with pretreatment; 2 wells of the plate were seeded for each condition of the assay.
After 24 hours of cell incubation at 37° C. and 5% CO2, the cell treatments were performed with 2 ml of total volume for the following conditions: • Control: culture medium (medium) • Camptothecin: medium plus camptothecin 50 μM. • Camptothecin plus Z-VAD-fmk: medium plus 50 μM camptothecin plus 50 μM Z-VAD-fmk, as positive inhibition control. • Camptothecin plus NST0037: medium plus 50 μM camptothecin plus NST0037 at 10, 40 or 100 μM.
In the assay with pretreatment, the cells were previously treated with 40 μM of NST0037, 100 μM of mevalonate or both together for 24 hours and then they were treated with 50 μM camptothecin, the rest of the procedure was similar to the assay without pretreatment.
The cells were incubated (at 37° C. and 5% CO2) with these treatments for 6 hours, after which time they were collected along with their culture medium and centrifuged at 300×g for 5 minutes. The medium was removed, a washing was performed with PBS and the cells were fixed for 2 minutes with 500 μl of 70% ethanol at −20° C. Once fixed, they were centrifuged at 400×g for 5 minutes, washed with PBS and 0.05 mg/ml propidium iodide, diluted in cycling buffer (0.1% sodium citrate, 0.3% Nonidet P-40 and 0.02 mg/ml RNase) were added and they were incubated for 1 hour at 37° C. After this time they were analyzed by flow cytometry, comparing the fluorescence of propidium iodide against the amount of DNA. The percentage of apoptosis was measured on the sub-G1 region of each of the conditions.

## CC(O)(CCO)CC(=O)O (stereo not shown) [mevalonate, reference compound]
[1]; 40 μM NST0037 plus mevalonate at 10, 40 and 100 μM
  effect of mevalonate on protection by NST0037 against death by XXO: inhibited
[1]; mevalonate at 10, 40 or 100 μM
  protection by mevalonate alone against death by XXO: does not protect against death by XXO
[2]
  effect of mevalonate on inhibition of caspase 3/7 by NST0037: reverted this inhibition
[3]
  effect of mevalonate on the protection exerted by NST0037 against apoptosis: partially inhibited
